Test results reported in patent US6008233A, “(1S,2S)-1-(4-hydroxyphenyl)-2-(4- hydroxy-4-phenylipiperidin-1-yl)-1-propanolmethanesulfonate trihydrate” (Pfizer Inc, priority 1998, dated 1999).
Structures can show the parent of a compound that is named as a salt.

Assays:
[1] = Hygroscopicity at ambient conditions of the anhydrous mesylate salt (Table 3); assay type: physicochemical
Source text: HYGROSCOPICITY AT AMBIENT CONDITIONS OF THE ANHYDROUS MESYLATE SALT

[2] = Equilibration of the anhydrous mesylate in an 81% RH environment; assay type: physicochemical; settings: equilibrated in an 81% RH environment
Source text: FIG. 1 depicts the X-ray powder diffraction spectrum of the mesylate trihydrate (taken on a Siemens D 5000 diffractometer after equilibration of the anhydrous mesylate at 81% relative humidity ("RH")), expressed as intensity (CPS) versus diffraction angle (two-theta degrees).

[3] = Hygroscopicity at 0%, 52% and 98% controlled relative humidities and under ambient laboratory conditions; assay type: physicochemical
[4] = tested on: hippocampal cells; experiment: Neuroprotective activity: glutamate toxicity in cultured fetal rat hippocampal cells (LDH release); assay type: cell-based; settings: in words
Procedure: The preferred procedure for evaluating the neuroprotective activity of this compound is that described by Ismail A. Shalaby, et al., in J. Pharm. and Experimental Therapeutics, 260, 925 (1992). This article is incorporated herein by reference in its entirety and described below.
Cell culture. […]
Glutamate toxicity. The cultures are assessed for glutamate toxicity 2 to 3 weeks from initial plating. […]
Cell viability is routinely assessed 20 to 24 hours after the excitotoxin exposure by measuring the activity of the cytosolic enzyme LDH. LDH activity is determined from the culture medium of each of the 96 wells of the microtiter plates. […] The 340 nm absorbance of the total reaction mixture for each of the 96 wells is monitored every 5 sec for 2 min by an automated spectrophotometric microtiter plate reader (Molecular Devices; Menlo Park, Calif.). The rate of absorbance is automatically calculated using an IBM SOFTmax program (version 1.01; Molecular Devices) and is used as the index of LDH activity.
Morphological assessment of neuronal viability is determined using phrase contrast microscopy. […] Quantitatively, both culture platings are equally sensitive to glutamate toxicity, and display 2- to 3-fold increases in LDH activity 24 hours after exposure to 0.1 to 1.0 mM glutamate. […]

[5] = tested on: NMDA (N-methyl-D-aspartic acid) receptor; experiment: NMDA receptor antagonist activity; settings: in words
[6] = Stability of crystalline form and shelf life compared to the anhydrous mesylate; assay type: physicochemical; settings: compared with the corresponding anhydrous salt
[7] = Bulk stability samples stored in polyethylene bags; assay type: physicochemical; settings: 40° C./30% RH, 9 months
Procedure: Weight loss was also observed in bulk stability samples stored in polyethylene bags at 40° C./30% RH (>10% of weight was lost in 9 months).

Question: For `CC(C(O)c1ccc(O)cc1)N1CCC(O)(c2ccccc2)CC1` (centres unmarked) [anhydrous mesylate], which “% Difference from Initial” value ([1]; 1 hours since initial) is on record?
Answer: 0.06%

Question: And the “% Difference from Prev. Weighing” value ([1]; 1 hours since initial)?
Answer: 0.06%

Question: What about the “Weight of Sample” value ([1]; 1 hours since initial) of the same compound?
Answer: 0.4977 g

Question: And the “% Difference from Initial” value ([1]; 3.5 hours since initial)?
Answer: 0.06%

Question: And the “% Difference from Prev. Weighing” value ([1]; 3.5 hours since initial)?
Answer: 0.00%

Question: What about the “Weight of Sample” value ([1]; 3.5 hours since initial) of the same compound?
Answer: 0.4977 g

Question: And the “% Difference from Initial” value ([1]; 22 hours since initial)?
Answer: 0.32%

Question: What about the “% Difference from Prev. Weighing” value ([1]; 22 hours since initial) of the same compound?
Answer: 0.26%

Question: What about the “Weight of Sample” value ([1]; 22 hours since initial) of the same compound?
Answer: 0.4990 g

Question: And the “% Difference from Initial” value ([1]; 30.5 hours since initial)?
Answer: 0.56%

Question: What about the “% Difference from Prev. Weighing” value ([1]; 30.5 hours since initial) of the same compound?
Answer: 0.24%

Question: And the “Weight of Sample” value ([1]; 30.5 hours since initial)?
Answer: 0.5002 g

Question: And the “% Difference from Initial” value ([1]; 45.5 hours since initial)?
Answer: 1.93%

Question: And the “% Difference from Prev. Weighing” value ([1]; 45.5 hours since initial)?
Answer: 1.36%

Question: What about the “Weight of Sample” value ([1]; 45.5 hours since initial) of the same compound?
Answer: 0.5070 g

Question: And the “% Difference from Initial” value ([1]; 98 hours since initial)?
Answer: 2.57%

Question: And the “% Difference from Prev. Weighing” value ([1]; 98 hours since initial)?
Answer: 0.63%

Question: And the “Weight of Sample” value ([1]; 98 hours since initial)?
Answer: 0.5102 g

Question: What about the “% Difference from Initial” value ([1]; 170 hours since initial) of the same compound?
Answer: 3.94%

Question: And the “% Difference from Prev. Weighing” value ([1]; 170 hours since initial)?
Answer: 1.33%

Question: And the “Weight of Sample” value ([1]; 170 hours since initial)?
Answer: 0.5170 g

Question: And the “% Difference from Initial” value ([1]; 194 hours since initial)?
Answer: 3.94%

Question: What about the “% Difference from Prev. Weighing” value ([1]; 194 hours since initial) of the same compound?
Answer: 0.00%

Question: What about the “Weight of Sample” value ([1]; 194 hours since initial) of the same compound?
Answer: 0.5170 g

Question: What about the “% Difference from Initial” value ([1]; 215 hours since initial) of the same compound?
Answer: 3.96%

Question: What about the “% Difference from Prev. Weighing” value ([1]; 215 hours since initial) of the same compound?
Answer: 0.02%

Question: And the “Weight of Sample” value ([1]; 215 hours since initial)?
Answer: 0.5171 g

Question: What about the “% Difference from Initial” value ([1]; 246 hours since initial) of the same compound?
Answer: 4.22%

Question: And the “% Difference from Prev. Weighing” value ([1]; 246 hours since initial)?
Answer: 0.25%

Question: What about the “Weight of Sample” value ([1]; 246 hours since initial) of the same compound?
Answer: 0.5184 g

Question: What about the “% Difference from Initial” value ([1]; 382 hours since initial) of the same compound?
Answer: 4.60%

Question: And the “% Difference from Prev. Weighing” value ([1]; 382 hours since initial)?
Answer: 0.37%

Question: And the “Weight of Sample” value ([1]; 382 hours since initial)?
Answer: 0.5203 g

Question: And the “% Difference from Initial” value ([1]; 408 hours since initial)?
Answer: 4.40%

Question: What about the “% Difference from Prev. Weighing” value ([1]; 408 hours since initial) of the same compound?
Answer: -0.19%

Question: What about the “Weight of Sample” value ([1]; 408 hours since initial) of the same compound?
Answer: 0.5193 g

Question: What about the “% Difference from Initial” value ([1]; 533 hours since initial) of the same compound?
Answer: 4.40%

Question: What about the “% Difference from Prev. Weighing” value ([1]; 533 hours since initial) of the same compound?
Answer: 0.00%

Question: What about the “Weight of Sample” value ([1]; 533 hours since initial) of the same compound?
Answer: 0.5193 g

Question: What about the “Weight of Sample” value ([1]; initial) of the same compound?
Answer: 0.4974 g

Question: What about the “weight gain at ambient conditions” value ([1]; summary in words) of the same compound?
Answer: substantial weight gain

Question: What about the “conversion to the mesylate salt trihydrate” value [2] of the same compound?
Answer: will convert to the mesylate salt trihydrate

Question: What about the “re-equilibration to the hydrated form” value ([3]; anhydrous form exposed to higher humidities) of the same compound?
Answer: quickly equilibrated to the hydrated form

Question: Which results are given for `C[C@@H]([C@@H](O)c1ccc(O)cc1)N1CCC(O)(c2ccccc2)CC1` [free base, (1S,2S)-1-(4-hydroxyphenyl)-2-(4-hydroxy-4-phenylpiperidin-1-yl)-1-propanol]?
Answer: neuroprotective activity [4]: possesses selective neuroprotective activity; activity as NMDA receptor antagonist [5]: exhibit activity as NMDA (N-methyl-D-aspartic acid) receptor antagonists

Question: With `CC(C(O)c1ccc(O)cc1)N1CCC(O)(c2ccccc2)CC1` [mesylate salt trihydrate, (1S,2S)-1-(4-hydroxyphenyl)-2-(4-hydroxy-4-phenylpiperidin-1-yl)-1-propanol methanesulfonate trihydrate] as the compound, how does the “breakdown of the crystal structure” value [6] read?
Answer: less subject to breakdown of the crystal structure

Question: And the shelf life [6]?
Answer: substantially longer shelf life

Question: And the “stability of crystalline form” value [6]?
Answer: more stable crystalline form than the corresponding anhydrous salt

Question: And the weight lost [7]?
Answer: > 10%

Question: And the neuroprotective activity [4]?
Answer: possesses selective neuroprotective activity

Question: And the “activity as NMDA receptor antagonist” value [5]?
Answer: exhibit activity as NMDA (N-methyl-D-aspartic acid) receptor antagonists

Question: What about the “loss of waters of hydration” value ([3]; 0% RH) of the same compound?
Answer: Loss of waters of hydration is observed

Question: And the weight change ([3]; 52% RH)?
Answer: No weight change

Question: What about the weight change ([3]; 98% RH) of the same compound?
Answer: No weight change

Question: What about the weight change ([3]; ambient laboratory conditions (24-27° C., 31-64% RH's)) of the same compound?
Answer: No weight change

Question: And the “reversibility of weight loss observed at 0% RH” value ([3]; exposure to higher humidities after 0% RH)?
Answer: reversible
